Results reported in ChEMBL document CHEMBL1133554, “Synthesis, structure-activity relationships, and pharmacological profile of 9-amino-4-oxo-1-phenyl-3,4,6,7-tetrahydro[1,4]diazepino[6, 7,1-hi]indoles: discovery of potent, selective phosphodiesterase type 4 inhibitors” (J Med Chem, 2000).

Experiments:
Phosphodiesterase 3 = Phosphodiesterase 3 (Homo sapiens, UniProt Q14432+Q13370); assay: Inhibition of phosphodiesterase 3 (PDE3) isolated from the dog aorta; format: protein assay, Canis lupus familiaris; conditions: target entry is the homologue from another species
Phosphodiesterase 4 [1] = target: T1, Phosphodiesterase 4 (Homo sapiens, UniProt P27815+Q08499+Q07343+Q08493); assay: Inhibition of phosphodiesterase type 4 isozyme (PDE4) from the U937 human cell line.; format: cell-based; conditions: u-937
[2] = target: Phosphodiesterase, PDE1/PDE5 (Homo sapiens, UniProt O76074+P54750+Q01064+Q14123); assay: Inhibition of phosphodiesterase 1/5 isozyme (PDE1/5) mixture isolated from the guinea pig trachea.; design: species or system Cavia porcellus; conditions: target entry is the homologue from another species
[3] = In vitro inhibition of TNF-alpha-release from human whole blood; format: functional
Rattus norvegicus = assay: In vivo inhibition of antigen induced eosinophil recruitment in Brown-Norvway Rats at 10 mg/kg peroral dose; format: functional; conditions: route oral
[4] = In vitro inhibition of TNF-alpha release from human peripheral blood monocytes; format: functional
Phosphodiesterase 4 [5] = target: T1, Phosphodiesterase 4; assay: PDE4-related emetic activity in ferrets after intravenous administration at 40 mg/kg; format: functional, organism-based; design: dose 40 mg/kg; conditions: Mustela putorius furo, target entry is the homologue from another species
[6] = In vivo inhibition of LPS-stimulated TNF-alpha release in Wistar rats at 10 mg/kg oral dose; format: functional; conditions: Rattus norvegicus
Phosphodiesterase 4 [7] = target: T1, Phosphodiesterase 4; assay: PDE4-related emetic activity in ferrets after intravenous administration at 10 mg/kg; format: functional, organism-based; design: dose 10 mg/kg; conditions: Mustela putorius furo, target entry is the homologue from another species

SMILES	IC50 (Phosphodiesterase 3)	IC50 (Phosphodiesterase 4 [1])	IC50 [2]	IC50 [3]	inhibition in vivo at 10 mg/kg (Rattus norvegicus)	IC50 [4]	ED50 (Rattus norvegicus)	R+V (Phosphodiesterase 4 [5])	inhibition in vivo at 10 mg/kg [6]	R+V (Phosphodiesterase 4 [7])	ED50 [6]
Nc1cc2c3c(c1)C(c1ccccc1)=N[C@@H](NC(=O)c1cnc4ccccc4c1)C(=O)N3CC2	53.9 µM	0.2 µM	90.7 µM								
Nc1cc2c3c(c1)C(c1ccccc1)=N[C@@H](NC(=O)c1cc(Cl)c(N)c(Cl)c1)C(=O)N3CC2	51.6 µM	0.04 µM	> 100 µM	0.438 µM	-61.8%	0.011 µM					
CC(=O)Nc1cc2c3c(c1)C(c1ccccc1)=N[C@@H](NC(=O)c1cc(Cl)c(N)c(Cl)c1)C(=O)N3CC2	4.5 µM	0.09 µM	3.5 µM								
Cc1cc2c3c(c1)C(c1ccccc1)=N[C@@H](NC(=O)c1c(Cl)cncc1Cl)C(=O)N3CC2	19.5 µM	1 µM	38 µM				63.7 mg/kg				
CN(C)c1cc2c3c(c1)C(c1ccccc1)=N[C@@H](NC(=O)c1cc(Cl)c(N)c(Cl)c1)C(=O)N3CC2	3.2 µM	0.2 µM	5.3 µM								
Nc1cc2c3c(c1)C(c1ccccc1)=N[C@@H](NC(=O)c1ccncc1)C(=O)N3CC2	> 100 µM	0.5 µM	> 100 µM	1.09 µM		0.48 µM	1.89 mg/kg	0 90 min	-71%		
Cc1cc2nnc(C(=O)N[C@@H]3N=C(c4ccccc4)c4cc(N)cc5c4N(CC5)C3=O)c(C)n2n1	48.6 µM	0.2 µM	72 µM	0.75 µM		0.26 µM	1.8 mg/kg				
Cc1cc2nnc(C(=O)N[C@@H]3N=C(c4ccccc4)c4cc(N5CCCC5)cc5c4N(CC5)C3=O)c(C)n2n1	22.2 µM	0.2 µM	> 100 µM								
CC(=O)Nc1cc2c3c(c1)C(c1ccccc1)=N[C@@H](NC(=O)c1ccncc1)C(=O)N3CC2	70 µM	0.7 µM	30.1 µM								
CC(C)(C)OC(=O)Nc1cnccc1C(=O)N[C@@H]1N=C(c2ccccc2)c2cccc3c2N(CC3)C1=O	54.7 µM	6.2 µM	53.3 µM								
O=C(N[C@@H]1N=C(c2ccccc2)c2cccc3c2N(CC3)C1=O)c1ccncc1	> 100 µM	20.5 µM	> 100 µM								
Cc1cc2c3c(c1)C(c1ccccc1)=N[C@@H](NC(=O)c1cc4ccccc4cn1)C(=O)N3CC2	> 100 µM		> 100 µM								
Nc1cnccc1C(=O)N[C@@H]1N=C(c2ccccc2)c2cccc3c2N(CC3)C1=O	90 µM	16.2 µM	> 100 µM								
COc1cc2c3c(c1)C(c1ccccc1)=N[C@@H](NC(=O)c1nnc4cc(C)nn4c1C)C(=O)N3CC2	46 µM	2.7 µM	14.1 µM								
Nc1cc2c3c(c1)C(c1ccccc1)=N[C@@H](NC(=O)c1ccncc1N)C(=O)N3CC2	> 100 µM	0.7 µM	> 100 µM	0.398 µM	-82%	0.08 µM			-89%	3.5 90 min	
Nc1cc2c3c(c1)C(c1ccccc1)=N[C@@H](NC(=O)c1cc4ccccc4cn1)C(=O)N3CC2	48.5 µM	0.1 µM	> 100 µM	3.37 µM	-62.9%	0.048 µM			-16%		
O=C(N[C@@H]1N=C(c2ccccc2)c2cccc3c2N(CC3)C1=O)c1c(Cl)cncc1Cl	> 100 µM	4.7 µM	> 100 µM								
COc1cc2c3c(c1)C(c1ccccc1)=N[C@@H](NC(=O)c1ccncc1)C(=O)N3CC2	40.8 µM	4.4 µM	16.1 µM								

SMILES	IC50 (Phosphodiesterase 3)	IC50 (Phosphodiesterase 4 [1])	IC50 [2]	IC50 [3]	inhibition in vivo at 10 mg/kg (Rattus norvegicus)	IC50 [4]	ED50 (Rattus norvegicus)	R+V (Phosphodiesterase 4 [5])	inhibition in vivo at 10 mg/kg [6]	R+V (Phosphodiesterase 4 [7])	ED50 [6]
Nc1c(Cl)cc(C(=O)N[C@@H]2N=C(c3ccccc3)c3cc(N4CCCC4)cc4c3N(CC4)C2=O)cc1Cl	10.6 µM	0.08 µM	39.2 µM								
Cc1cc2c3c(c1)C(c1ccccc1)=N[C@@H](NC(=O)c1ccncc1)C(=O)N3CC2	35.8 µM		73.4 µM	61 µM		0.99 µM	5.06 mg/kg		-25%	0 90 min	
Nc1cc2c3c(c1)C(c1ccccc1)=N[C@@H](NC(=O)c1c(Cl)cncc1Cl)C(=O)N3CC2	80 µM	0.2 µM	> 100 µM	0.213 µM		0.038 µM					
O=C(N[C@@H]1N=C(c2ccccc2)c2cc([N+](=O)[O-])cc3c2N(CC3)C1=O)c1cccnc1		10.8 µM									
O=C(N[C@@H]1N=C(c2ccccc2)c2cccc3c2N(CC3)C1=O)c1cccnc1	> 100 µM	10.5 µM	> 100 µM								
COc1ccccc1C(=O)N[C@@H]1N=C(c2ccccc2)c2cc(C)cc3c2N(CC3)C1=O	28.8 µM	1.3 µM	50.6 µM								
O=C(N[C@@H]1N=C(c2ccccc2)c2cccc3c2N(CC3)C1=O)c1cc2ccccc2cn1	> 100 µM	5.5 µM	> 100 µM								
COc1ccc(C2CNC(=O)C2)cc1OC1CCCC1 (stereo not given) [ROLIPRAM]	> 100 µM			0.94 µM		0.083 µM	4.66 mg/kg		94%		
Nc1ccc(C(=O)N[C@@H]2N=C(c3ccccc3)c3cc(N)cc4c3N(CC4)C2=O)cc1	86.8 µM	0.69 µM	93.2 µM	1.52 µM		0.443 µM	10.8 mg/kg		-71%	0 90 min	
Cc1cc2c3c(c1)C(c1ccccc1)=N[C@@H](NC(=O)c1cc(Cl)c(N)c(Cl)c1)C(=O)N3CC2	10.3 µM	0.3 µM	> 100 µM		-21%						
Cc1cc2c3c(c1)C(c1ccccc1)=N[C@@H](NC(=O)c1nnc4cc(C)nn4c1C)C(=O)N3CC2	> 100 µM	0.7 µM	> 100 µM	> 30 µM		5.35 µM	33.9 mg/kg				
COc1cc2c3c(c1)C(c1ccccc1)=N[C@@H](NC(=O)c1cnc4ccccc4c1)C(=O)N3CC2	19.4 µM	1.7 µM	16.1 µM								
CC(C)(C)OC(=O)Nc1cnccc1C(=O)N[C@@H]1N=C(c2ccccc2)c2cc(N)cc3c2N(CC3)C1=O	58.2 µM		67.7 µM				5.03 mg/kg		-87%	0 90 min	
Nc1cc2c3c(c1)C(c1ccccc1)=N[C@@H](NC(=O)c1cccnc1)C(=O)N3CC2	> 100 µM	0.27 µM	> 100 µM	1.24 µM		0.34 µM	3.2 mg/kg	0 90 min			2.8 mg/kg
O=C(N[C@@H]1N=C(c2ccccc2)c2cc(N3CCCC3)cc3c2N(CC3)C1=O)c1ccncc1	18 µM	1.4 µM	34 µM								
COc1ccc([C@]2(C#N)CC[C@@H](C(=O)O)CC2)cc1OC1CCCC1 [CILOMILAST]				7.3 µM						59.5 90 min	3 mg/kg
O=C(N[C@@H]1N=C(c2ccccc2)c2cc([N+](=O)[O-])cc3c2N(CC3)C1=O)c1cc2ccccc2cn1		> 100 µM									
COc1ccccc1C(=O)N[C@@H]1N=C(c2ccccc2)c2cc(N)cc3c2N(CC3)C1=O	> 100 µM	0.5 µM	93.2 µM	1.06 µM		0.123 µM					
